In data set [1] the target is T1, hBACE1 D289N (proteolytic inactive mutant) in HEK293T cells (Homo sapiens, UniProt P56817, D289N).
T1 construct: expressed in transfected cells; host or cells: HEK293T
The data set can be described thus: Staining of transfected HEK293T cells, confocal imaging: BACE1 D289N. The class given is cell-based. The protocol:
(§1) Next, we explored the performance of the new Alexa-C3 compounds in living cells. Because of the rather hydrophilic properties, we exclusively targeted the cell membrane. To prevent intracellular accumulation, we first performed stainings at 4 °C arresting ATP-dependent endocytosis. […] All of the constructs were tagged at the C-terminus with either EGFP or mCherry to visualize subcellular expression. […] With these experiments, we want to exclude that a lack of staining is caused by an impaired accessibility of the protein by Alexa-C3 compounds. […] We then tested samples with BACE1 expression after fixation of the cells with paraformaldehyde (PFA).
(§2) (D) All conjugates were also probed on cells fixed with 4% paraformaldehyde (PFA) for 15 min prior to staining. […] Scale bars represent 5 μm (A–D) and 20 μm (E). […] Samples were excited at 488, 561, and 633 nm, respectively.
(§3) HEK293T cells (ATCC accession number CRL-11268) were maintained in Dulbecco's modified Eagle's medium (Sigma-Aldrich D6046) with 1g/L glucose, supplemented with 10% FCS (Merck) and 1% penicillin/streptomycin (PAA). CHO-K1 cells (ATCC #CCL-61) were maintained in modified phenol red free RPMI-1640 medium (Sigma-Aldrich, R7509), supplemented with 2 mM L-glutamine (Sigma-Aldrich, G7513), and 10% FCS (Merck). Cells were cultured at 37 °C in a 5% CO2 atmosphere. The following plasmids were used for transfection with the amount of DNA indicated (per 35 mm Petri dish): hBACE1 (NM_012104.4), 50 ng for single molecule recordings, 200 ng otherwise; hBACE1 fused to EGFP or mCherry, 75 ng; hBACE1 D289N fused to EGFP or mCherry, 75 ng; hBACE1 D289N, 200–400 ng; hBACE2 (NM_012105.3) fused to EGFP, 75 ng; hCathepsinD (HsCD00438327), Harvard PlasmID, 75 ng. Transfection was performed 24 h after plating using jetPEI (Polyplus) according to the manufacturer’s protocol.
For labeling, we plated HEK293T cells onto sterile 18 mm 1.5H borosilicate coverslips (VWR), coated with poly-D-lysine (Sigma). […]

Data set [2] in a line: FCS of free Alexa-C3 in HBS in the absence of BACE1. To be noted: 100 nM in HBS, pH 5, no BACE1, mean ± SD.
For data set [3], the target named is recombinant human BACE1 protein (amino acids 1–457, extracellular domain) (Homo sapiens, UniProt P56817). Put plainly: Fluorescence correlation spectroscopy (FCS) with BACE1 ECD in solution.
recombinant human BACE1 protein (amino acids 1–457, extracellular domain), sequence (P56817 22-457): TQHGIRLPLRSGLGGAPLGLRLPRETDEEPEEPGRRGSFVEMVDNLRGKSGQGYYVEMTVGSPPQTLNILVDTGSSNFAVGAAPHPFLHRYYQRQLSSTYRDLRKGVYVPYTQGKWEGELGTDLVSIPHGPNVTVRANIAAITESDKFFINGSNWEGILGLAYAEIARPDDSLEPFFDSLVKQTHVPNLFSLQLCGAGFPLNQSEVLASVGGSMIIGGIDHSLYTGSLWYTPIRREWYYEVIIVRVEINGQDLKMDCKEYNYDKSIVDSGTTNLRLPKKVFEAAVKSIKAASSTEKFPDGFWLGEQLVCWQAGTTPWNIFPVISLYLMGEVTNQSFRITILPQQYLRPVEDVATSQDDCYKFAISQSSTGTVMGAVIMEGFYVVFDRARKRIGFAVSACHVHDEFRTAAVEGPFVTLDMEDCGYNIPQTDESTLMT
The target of data set [4] is T2, recombinant BACE1 extracellular domain (Homo sapiens, UniProt P56817).
T2 construct: purchased Thermo Fisher Scientific P2985
T2 sequence (P56817 46-457 limits assumed): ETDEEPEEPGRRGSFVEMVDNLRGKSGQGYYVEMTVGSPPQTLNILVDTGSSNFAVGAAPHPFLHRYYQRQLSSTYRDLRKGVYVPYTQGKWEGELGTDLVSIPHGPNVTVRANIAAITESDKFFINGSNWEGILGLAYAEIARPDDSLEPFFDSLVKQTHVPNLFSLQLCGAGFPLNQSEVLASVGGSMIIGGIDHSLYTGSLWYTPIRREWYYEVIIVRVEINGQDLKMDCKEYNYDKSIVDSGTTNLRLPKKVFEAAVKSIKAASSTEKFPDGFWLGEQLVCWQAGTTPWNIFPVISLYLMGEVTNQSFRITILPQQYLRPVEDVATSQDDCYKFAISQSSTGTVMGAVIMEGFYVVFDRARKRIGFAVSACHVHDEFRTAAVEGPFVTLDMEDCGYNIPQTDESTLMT
Put plainly: FRET-based BACE1 inhibition (BACE1-activity FRET) assay. The class given is biochemical. As to the method:
In addition, we performed a fluorescence resonance energy transfer (FRET)-based BACE1 inhibition assay using the recombinant BACE1 extracellular domain and a BACE1 substrate coupled to a donor fluorophore, which is unquenched […] to the activity of BACE1. […] (Figure 1F).
Protease activity was determined using a FRET-based assay with recombinant BACE1 protein (Thermo Fisher Scientific; P2985). BACE1 inhibition was determined in end-points assays according to the manufacturer’s protocol except using a reduced volume of 12 μL in 384-well plates (Greiner, 788896). […] Fluorescence intensities were quantified with an infinite 200pro reader (Tecan) using top-reading mode. Data points were approximated using a logistic fit to determine half-inhibitory concentrations (pIC50).

The target of data set [5] is T3, hBACE1 fused to EGFP or mCherry in HEK293T cells (Homo sapiens, UniProt P56817).
T3 construct: expressed in transfected cells; host or cells: HEK293T
T3 sequence (P56817 46-501): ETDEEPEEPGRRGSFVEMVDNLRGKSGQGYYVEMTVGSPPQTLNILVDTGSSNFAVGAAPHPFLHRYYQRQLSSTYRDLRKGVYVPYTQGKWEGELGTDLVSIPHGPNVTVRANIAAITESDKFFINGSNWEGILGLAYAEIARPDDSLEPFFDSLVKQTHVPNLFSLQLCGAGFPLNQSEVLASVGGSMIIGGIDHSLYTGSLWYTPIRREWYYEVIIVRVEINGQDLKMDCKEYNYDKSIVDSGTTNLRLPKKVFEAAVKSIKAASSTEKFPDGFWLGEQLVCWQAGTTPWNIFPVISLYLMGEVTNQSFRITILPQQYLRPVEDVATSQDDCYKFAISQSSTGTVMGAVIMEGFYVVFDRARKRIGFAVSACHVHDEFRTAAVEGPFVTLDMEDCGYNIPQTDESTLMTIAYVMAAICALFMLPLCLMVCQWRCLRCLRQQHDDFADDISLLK
Put plainly: Staining of transfected HEK293T cells, confocal imaging: BACE1. The data set is classed as cell-based. The conditions noted are these: living HEK293T, preincubation with 2 μM C3. The protocol: as §1, §2, §3
For labeling, we plated HEK293T cells onto sterile 18 mm 1.5H borosilicate coverslips (VWR), coated with poly-D-lysine (Sigma). […] In addition, some cells were also fixed with 4% PFA or permeabilized with HBS + 50 μg/mL of Saponin for 15 min prior to staining as stated in the figure legend. After staining, live cells were washed with HBS twice. Confocal imaging was conducted at room temperature in HBS using the 63× objective and the pinhole set to 1 AU. Confocal imaging was performed 24 h after transfection.

The nature of data set [6]: Fluorescence spectroscopy, sensitivity to BSA and Expi293F cells.
Protocol: Emission and excitation spectra of all compounds were determined at a concentration of 33 nM in phosphate buffered saline (PBS) using an infinite 200pro (Tecan) with a resolution of 2 nm. […] For sensitivity assessment, we used PBS, PBS + BSA (0.05%), and Expi293F cells in fluorobrite (2 × 10^6 cells/mL).
Data set [7] has as its target T4, wild-type hBACE1 in CHO-K1 cells (Homo sapiens, UniProt P56817).
T4 construct: expressed in transfected cells; host or cells: CHO-K1
Put plainly: Single molecule TIRF microscopy and bleaching step analysis in CHO-K1 cells. The class given is cell-based. The conditions noted are these: 200 nM probe, fixed CHO-K1, TIRF, after rolling background subtraction. The protocol:
Due to the high photostability and quantum yield of the Alexa dyes, the C3-compounds are potential tools for single molecule fluorescence microscopy of BACE1. […] CHO-K1 cells were transfected with wild-type BACE1. […] The samples were then recorded using total internal reflection fluorescence (TIRF) microscopy. […] Prior to analysis, ImageJ rolling background subtraction was applied[45] (Figure 6A, right panel). […] Single particles were identified and time traces of fluorescence intensity were extracted using GMimPro[46] (Figure 6B). The time traces were then subjected to a bleaching-step analysis with quickPBSA[47] (Figure 6B). […] The msfGFP was reported previously to display a fluorescence probability of about 50%, defined as combined probability of fluorescence, detection in the specific imaging system and identification in the analysis of a BACE1 molecule.[48] […] Here, the best fits indicated also a fluorescence probability of about 60%, but with a considerably lower fit error compared to dimers only (Figure 6D, blue traces).
The panel in the middle depicts typical single molecule complexes 48 h after transfection with 50 ng wild type BACE1. […] The insets highlight single fluorescence spots at higher magnification. […] (B) Single fluorescence spots were located and fluorescence intensities over time were extracted (see methods). […]

Data set [8] concerns the target BACE-1 (mouse Protein, recombinant) (Mus musculus, UniProt P56818). The data set can be described thus: Nanotemper (Monolith NT.115) binding analysis. The conditions noted are these: for binding of free acid dyes to recombinant BACE1: 0.1 nM dye, BACE1 0.3–5000 nM.
Protocol: For binding analysis, the Monolith NT.115 (Nanotemper) was used. BACE-1 (mouse Protein, recombinant, life technologies, 50002-M08H-250, LCL10JA2204)) was dissolved in 50 mM HEPES/100 mM NaCl, pH 5 to a concentration of 20 μM. […] Samples were loaded on standard capillaries (Nanotemper, MO-K022) and measured in triplicate at 22 °C, using 1%/60% LED power for Alexa488/Alexa568 and 10% MST power. Fluorescence was plotted against protein concentrations.
Where [9] appears, read: BACE1 concentration 0.305 (unit not given; 0.3–5000 nM), triplicate.
The mark [10] stands for this setting: BACE1 concentration 0.61, triplicate.
[11] abbreviates: BACE1 concentration 1.221, triplicate.
Setting [12] is: BACE1 concentration 2.441, triplicate.
Where [13] appears, read: BACE1 concentration 4.883, triplicate.
Where [14] appears, read: BACE1 concentration 9.766, triplicate.
Where [15] appears, read: BACE1 concentration 19.531, triplicate.
Where [16] appears, read: BACE1 concentration 39.062, triplicate.
Where [17] appears, read: BACE1 concentration 78.125, triplicate.
Where [18] appears, read: BACE1 concentration 156.25, triplicate.
Setting [19] is: BACE1 concentration 312.5, triplicate.
Setting [20] is: BACE1 concentration 625, triplicate.
Setting [21] is: BACE1 concentration 1250, triplicate.
Setting [22] is: BACE1 concentration 2500, triplicate.
Where [23] appears, read: BACE1 concentration 5000, triplicate.

Experimental findings from publication PMC11215771 (Journal of Medicinal Chemistry, 2024) are described below.

Molecules are shown by their SMILES. Values joined by “and” are separate entries in the source; they are usually repeats but may differ in a detail not shown here. Equal values may be shown once.

BACE-1 (mouse Protein, recombinant), sequence (P56818 46-457 limits assumed): as the sequence (P56817 46-457 limits assumed) above, with P6S, V162I, L165I, S180T, V182A, I340V, L393A counted along it
T1 sequence (P56817 46-501 D289N): as the sequence (P56817 46-501) above, with D244N counted along it
T4 sequence (P56817 46-501): as the sequence (P56817 46-501) above

As a reminder, the EC50 is the concentration at which the effect is half-maximal. As for `C[C@@H](NC(=O)c1cc(C(=O)N[C@@H](Cc2ccccc2)[C@H](O)CNC2CC2)cc(N(C)S(=O)(=O)CCCNC(=O)c2ccc(C(=O)O)c(C3=c4cc5c(cc4Oc4cc6c(cc43)C(CS(=O)(=O)O)=CC(C)(C)N6)=NC(C)(C)C=C5CS(=O)(=O)O)c2)c1)c1ccccc1`, in data set [1], the “staining of BACE1 D289N” value is given as “no appreciable fluorescence”. Also, the “diffusion time constant of free probe” value in data set [2] was determined as 49 ± 2 μs. Also, the EC50 in data set [3] was 0.0457 µM. In data set [3] (100 nM probe with BACE1 ECD, pH 5, mean ± SEM, n = 3 preparations), the “diffusion time constant of the second (BACE1-bound, slow) population” value is given as 300 ± 20 μs. Besides, the “increase of potency of the pIC50 in a cell-free assay vs parent C3” value in data set [4] (compared with unconjugated C3) is given as 10 fold. The IC50 in data set [4] (logistic fit, n = 3 for each compound, read-out: pIC50 (negative logarithm of the half-inhibitory concentration) (converted)) is 0.00245 µM. Further, in data set [5], the “staining of BACE1 after preincubation with unconjugated C3” value is given as “no appreciable fluorescence”. The “increase of fluorescent output in PBS supplemented with BSA” value in data set [6] (PBS + BSA (0.05%) vs PBS alone) is reported as “+228%”. Moreover, the “increase of fluorescent output in presence of Expi293F cells” value in data set [6] (mock Expi293F cells in fluorobrite vs PBS alone) is listed as “+302%”. In addition, the signal-to-background ratio in data set [7] is recorded as 5.9.

On to `CC1(C)C=C(CS(=O)(=O)O)c2cc3c(cc2=N1)Oc1cc2c(cc1C=3c1cc(C(=O)O)ccc1C(=O)O)C(CS(=O)(=O)O)=CC(C)(C)N2` [Alexa568], for which, in data set [8], the “binding of free acid dyes to recombinant BACE1” value is given as “did not observe any indication for affinity”. In addition, the “fluorescence reading, single replicates” value was 1000.167 and 1000.199 and 1000.049 in data set [8] (setting [9]); 1000.123 and 1000.132 and 1000.01 in data set [8] (setting [10]); 1000.102 and 1000.025 and 1000.071 in data set [8] (setting [11]); 1000.271 and 1000.043 and 1000.008 in data set [8] (setting [12]); 1000.035 and 1000.075 and 1000.095 in data set [8] (setting [13]); 999.978 and 999.965 and 1000.148 in data set [8] (setting [14]). The “fluorescence reading, single replicates” value was 1000.105 and 1000.065 and 999.949 in data set [8] (setting [15]); 1000.023 and 999.969 and 1000.096 in data set [8] (setting [16]); 1000.136 and 1000.189 and 1000.122 in data set [8] (setting [17]); 1000.014 and 1000.053 and 1000.126 in data set [8] (setting [18]); 999.991 and 999.997 and 999.948 in data set [8] (setting [19]); 999.898 and 999.877 and 999.931 in data set [8] (setting [20]). The “fluorescence reading, single replicates” value in data set [8] (setting [21]) is 999.758 and 999.742 and 999.781; in data set [8] (setting [22]), 999.645 and 999.707 and 999.65; in data set [8] (setting [23]), 999.562 and 999.587 and 999.529.

As for `N=c1ccc2c(-c3cc(C(=O)O)ccc3C(=O)O)c3ccc(N)c(S(=O)(=O)O)c3oc-2c1S(=O)(=O)O` [Alexa488], the “binding of free acid dyes to recombinant BACE1” value in data set [8] was “did not observe any indication for affinity”. Also, the “fluorescence reading, single replicates” value in data set [8] (setting [9]) was 996.43 and 995.816 and 995.716; in data set [8] (setting [10]), 995.873 and 995.729 and 996.039; in data set [8] (setting [11]) it was 995.788 and 996.299 and 996.353; in data set [8] (setting [12]) it was 996.08 and 995.975 and 995.829; in data set [8] (setting [13]), 996.289 and 995.771 and 996.152; in data set [8] (setting [14]), 995.856 and 996.198 and 996.218. Also, the “fluorescence reading, single replicates” value in data set [8] (setting [15]) was 996.164 and 995.908 and 996.132; in data set [8] (setting [16]), 996.17 and 996.327 and 995.657; in data set [8] (setting [17]), 996.076 and 996.3 and 995.686; in data set [8] (setting [18]) it was 996.777 and 995.969 and 996.167; in data set [8] (setting [19]), 996.159 and 995.85 and 996.173; in data set [8] (setting [20]), 995.972 and 996.54 and 995.887. The “fluorescence reading, single replicates” value is 996.02 and 995.911 and 996.501 in data set [8] (setting [21]); 996.211 and 996.223 and 996.163 in data set [8] (setting [22]); 996.477 and 996.486 and 996.65 in data set [8] (setting [23]).
